Test results reported in PubChem BioAssay (NCI).
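In this assay, cells in 96-well plates receive the compound at five concentrations for 48 hours. Endpoints are linearly interpolated between the surrounding concentrations. TGI is the concentration that stops growth completely.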

Columns and labels:
Assay in all cases: growth of human tumour cells (NCI), 48 h
[1] = tested on: A498 renal
[2] = tested on: LOX IMVI melanoma
[3] = tested on: SF-295 CNS
[4] = tested on: SNB-19 CNS
[5] = tested on: NCI-H522 lung
[6] = tested on: HCC-2998 colon
[7] = tested on: U251 CNS
[8] = tested on: SK-MEL-2 melanoma
[9] = tested on: TK-10 renal
[10] = tested on: OVCAR-4 ovarian
[11] = tested on: KM12 colon
[12] = tested on: HCT-116 colon
[13] = tested on: RPMI-8226 leukemia
[14] = tested on: DMS 114 small cell lung
[15] = tested on: SK-OV-3 ovarian
[16] = tested on: OVCAR-5 ovarian
[17] = tested on: CCRF-CEM leukemia
[18] = tested on: A549 NSCLC
[19] = tested on: SNB-78 CNS
[20] = tested on: CAKI-1 renal
[21] = tested on: MALME-3M melanoma
[22] = tested on: HOP-18 NSCLC
[23] = tested on: RXF 393 renal
[24] = tested on: XF 498 CNS
[25] = tested on: SK-MEL-5 melanoma
[26] = tested on: MOLT-4 leukemia
[27] = tested on: NCI-H23 lung
[28] = tested on: ACHN renal
[29] = tested on: DMS 273 small cell lung
[30] = tested on: NCI-H460 lung
[31] = tested on: SNB-75 CNS
[32] = tested on: HCT-15 colon
[33] = tested on: COLO 205 colon
[34] = tested on: SN12C renal
[35] = tested on: UACC-257 melanoma
[36] = tested on: SW-620 colon
[37] = tested on: SK-MEL-28 melanoma
[38] = tested on: RXF-631 renal
[39] = tested on: LXFL 529 NSCLC
[40] = tested on: SF-268 CNS
[41] = tested on: HL-60(TB) leukemia
[42] = tested on: SR leukemia
[43] = tested on: DLD-1 colon
[44] = tested on: HOP-92 NSCLC
[45] = tested on: HT29 colon
[46] = tested on: NCI-H226 lung
[47] = tested on: IGROV1 ovarian
[48] = tested on: M14 melanoma
[49] = tested on: UO-31 renal
[50] = tested on: 786-0 renal
[51] = tested on: OVCAR-3 ovarian
[52] = tested on: EKVX NSCLC
[53] = tested on: UACC-62 melanoma
[54] = tested on: HOP-62 NSCLC
[55] = tested on: KM20L2 colon
[56] = tested on: M19-MEL melanoma
[57] = tested on: K-562 leukemia
[58] = tested on: SF-539 CNS

SMILES: CN1NC(c2ccccc2)=C(C#N)C(=O)CC1c1ccc(F)cc1 (centres undefined)
- TGI [1]: > 100 µM
- TGI [2]: > 100 µM
- TGI [3]: > 100 µM
- TGI [4]: > 100 µM
- TGI [5]: > 100 µM
- TGI [6]: > 100 µM
- TGI [7]: > 100 µM
- TGI [8]: > 100 µM
- TGI [9]: > 100 µM
- TGI [10]: > 100 µM
- TGI [11]: > 100 µM
- TGI [12]: > 100 µM
- TGI [13]: > 100 µM
- TGI [14]: > 100 µM
- TGI [15]: > 100 µM
- TGI [16]: > 100 µM
- TGI [17]: > 100 µM
- TGI [18]: > 100 µM
- TGI [19]: > 100 µM
- TGI [20]: > 100 µM
- TGI [21]: > 100 µM
- TGI [22]: > 100 µM
- TGI [23]: > 100 µM
- TGI [24]: > 100 µM
- TGI [25]: > 100 µM
- TGI [26]: > 100 µM
- TGI [27]: > 100 µM
- TGI [28]: > 100 µM
- TGI [29]: > 100 µM
- TGI [30]: > 100 µM
- TGI [31]: > 100 µM
- TGI [32]: > 100 µM
- TGI [33]: > 100 µM
- TGI [34]: > 100 µM
- TGI [35]: > 100 µM
- TGI [36]: > 100 µM
- TGI [37]: > 100 µM
- TGI [38]: > 100 µM
- TGI [39]: > 100 µM
- TGI [40]: > 100 µM
- TGI [41]: > 100 µM
- TGI [42]: > 100 µM
- TGI [43]: > 100 µM
- TGI [44]: > 100 µM
- TGI [45]: > 100 µM
- TGI [46]: > 100 µM

SMILES: C=C1CC2(CCS(=O)(=O)c3ccccc32)OC1=O (centres undefined)
- TGI [1]: 31.5 µM
- TGI [2]: 33.3 µM
- TGI [3]: 45 µM
- TGI [4]: 22.8 µM
- TGI [5]: 11.4 µM
- TGI [6]: 37.1 µM
- TGI [7]: 26 µM
- TGI [8]: 23.6 µM
- TGI [9]: 26.7 µM
- TGI [10]: 26.7 µM
- TGI [11]: 37.8 µM
- TGI [13]: 10.6 µM
- TGI [14]: 14.2 µM
- TGI [15]: 44.1 µM
- TGI [16]: 27.3 µM
- TGI [17]: 11 µM
- TGI [18]: 35.2 µM
- TGI [19]: 33.6 µM
- TGI [20]: 3.3 µM
- TGI [21]: 26.3 µM
- TGI [22]: 14.7 µM
- TGI [47]: 34.1 µM
- TGI [48]: 20.3 µM
- TGI [49]: 26 µM
- TGI [24]: 26.1 µM
- TGI [50]: 15.7 µM
- TGI [25]: 27 µM
- TGI [26]: 15 µM
- TGI [51]: 21 µM
- TGI [27]: 27.7 µM
- TGI [28]: 23.7 µM
- TGI [29]: 30.5 µM
- TGI [52]: 33.1 µM
- TGI [30]: 35.3 µM
- TGI [53]: 31.6 µM
- TGI [32]: 27.6 µM
- TGI [54]: 46.8 µM
- TGI [33]: 9.33 µM
- TGI [55]: 28.6 µM
- TGI [56]: 37.2 µM
- TGI [35]: 32.1 µM
- TGI [36]: 11.4 µM
- TGI [37]: 27.8 µM
- TGI [38]: 43.4 µM
- TGI [39]: 15.9 µM
- TGI [40]: 38.4 µM
- TGI [41]: 8.64 µM
- TGI [43]: 25.9 µM
- TGI [44]: 14.2 µM
- TGI [45]: 31.7 µM
- TGI [46]: 28.9 µM
- TGI [57]: 34.4 µM
- TGI [58]: 18.1 µM
